Data: patent US10815238B2, “Antimicrobial compounds and methods of making and using the same” (BIOVERSYS AG, priority 2013, dated 2020)

Experiments:
[1] = tested on: Staphylococcus aureus (S. aureus) 11540 strain; experiment: Standard microdilution assay, MIC against S. aureus 11540; type: cell-based; settings: S. aureus 11540 strain, standard microdilution assay, cutoff 16 micrograms/mL, read-out: MIC S. aureus
In short: (§1)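 Scoring as + or − used a 16 micrograms/mL cutoff on minimum inhibitory concentrations. These came from CLSI-standard microdilution, quality-controlled with reference strains tested in the same run.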

[2] = tested on: Eschericia coli (E. coli) strain ATCC25922; experiment: Standard microdilution assay, MIC against E. coli ATCC25922; type: cell-based; settings: Escherichia coli; E. coli strain ATCC25922, standard microdilution assay; cutoff 16 micrograms/mL; read-out: MIC E. Coli
In short: as §1

SMILES | MIC [1] [µg/mL] | MIC [2] [µg/mL]
C[C@H](N)CCCc1cc(Cl)c(F)c(-c2cc3cn(-c4ccc(CN[C@H](CCNC(=N)N)CNc5nccs5)cc4)c(=O)nc3[nH]2)c1 [Compound 491] | < 16 | < 16
N=C(N)NCC[C@@H]1CCC[C@@H](c2ccc(-n3cc4cc(-c5ccc(S(=O)(=O)NC6CCNCC6)cc5)[nH]c4nc3=O)cc2)N1 [Compound 492] | < 16 | < 16
NCC[C@@H]1CCC[C@@H](c2ccc(-n3cc4cc(-c5ccc(S(=O)(=O)NC6CCNCC6)cc5)[nH]c4nc3=O)cc2)N1 [Compound 493] | < 16 | < 16
N=C(N)NCC[C@@H]1CCC[C@@H](c2ccc(-n3cc4cc(-c5ccc(S(=O)(=O)NC6CCN(C(=N)N)CC6)cc5)[nH]c4nc3=O)cc2)N1 [Compound 494] | < 16 | < 16
C[C@H](N)CCCc1cc(Cl)c(F)c(-c2cc3cn(-c4ccc([C@@H]5CCC[C@@H](Cc6nnc[nH]6)N5)cc4)c(=O)nc3[nH]2)c1 [Compound 496] | > 16 | > 16
Cc1noc(C[C@@H]2CCC[C@@H](c3ccc(-n4cc5cc(-c6cc(CCC[C@H](C)N)cc(Cl)c6F)[nH]c5nc4=O)cc3)N2)n1 [Compound 497] | < 16 | > 16
C[C@H](N)CCCc1cc(Cl)c(F)c(-c2cc3cn(-c4ccc([C@@H]5CCC[C@@H](CC#N)N5)cc4)c(=O)nc3[nH]2)c1 [Compound 498] | < 16 | > 16
C[C@H](N)CCCc1cc(Cl)c(F)c(-c2cc3cn(-c4ccc(CN[C@H](CCNC(=N)N)Cn5ccnn5)cc4)c(=O)nc3[nH]2)c1 [Compound 499] | < 16 | < 16
C[C@H](N)CCCc1cc(Cl)c(F)c(-c2cc3cn(-c4ccc(CN[C@H](CCN)Cn5ccnn5)cc4)c(=O)nc3[nH]2)c1 [Compound 500] | < 16 | < 16
CC(=O)NCC[C@@H]1CCC[C@@H](c2ccc(-n3cc4cc(-c5cc(CCC[C@H](C)N)cc(Cl)c5F)[nH]c4nc3=O)cc2)N1 [Compound 501] | > 16 | > 16
N=C(NC1CC1)c1ccc(-n2cc3cc(-c4ccc(S(=O)(=O)NC5CCNCC5)cc4)[nH]c3nc2=O)cc1 [Compound 502] | < 16 | < 16
C[C@H](N)CCCc1cc(Cl)c(F)c(-c2cc3cn(-c4ccc(C(=N)NC5CC5)cc4)c(=O)nc3[nH]2)c1 [Compound 503] | < 16 | < 16
N=C(NC1CCCC1)c1ccc(-n2cc3cc(-c4ccc(S(=O)(=O)NC5CCNCC5)cc4)[nH]c3nc2=O)cc1 [Compound 504] | > 16 | > 16
C[C@H](N)CCCc1cc(Cl)c(F)c(-c2cc3cn(-c4ccc(C(=N)NC5CCCC5)cc4)c(=O)nc3[nH]2)c1 [Compound 505] | < 16 | < 16
CC#C[C@H](CCNC(=N)N)NCc1ccc(-n2cc3cc(-c4cc(CCC[C@H](C)N)cc(Cl)c4F)[nH]c3nc2=O)cc1 [Compound 506] | < 16 | < 16
CC#C[C@@H](CCNC(=N)N)NCc1ccc(-n2cc3cc(-c4cc(CCC[C@H](C)N)cc(Cl)c4F)[nH]c3nc2=O)cc1 [Compound 507] | < 16 | < 16
C[C@H](N)CCCc1cc(Cl)c(F)c(-c2cc3cn(-c4ccc([C@@H]5CCC[C@@H](CCc6ncc[nH]6)N5)cc4)c(=O)nc3[nH]2)c1 [Compound 508] | < 16 | < 16
C[C@H](N)CCCc1cc(Cl)c(F)c(-c2cc3cn(-c4ccc([C@@H]5CCC[C@@H](Cc6nn[nH]n6)N5)cc4)c(=O)nc3[nH]2)c1 [Compound 509] | > 16 | > 16
C[C@H](N)CCCc1cc(Cl)c(F)c(-c2cc3cn(-c4ccc([C@@H]5CCC[C@@H](CCNC(N)=O)N5)cc4)c(=O)nc3[nH]2)c1 [Compound 510] | > 16 | > 16
C[C@H](N)CCCc1cc(Cl)c(F)c(-c2cc3cn(-c4ccc([C@@H]5CCC[C@@H](CCC(N)=O)N5)cc4)c(=O)nc3[nH]2)c1 [Compound 511] | < 16 | < 16
C[C@H](N)CCCc1cc(Cl)c(F)c(-c2cc3cn(-c4ccc(C(=N)NCC[C@H](C)N)cc4)c(=O)nc3[nH]2)c1 [Compound 512] | < 16 | < 16
CNC(=O)CC[C@@H]1CCC[C@@H](c2ccc(-n3cc4cc(-c5cc(CCC[C@H](C)N)cc(Cl)c5F)[nH]c4nc3=O)cc2)N1 [Compound 513] | > 16 | > 16
C[C@H](N)CCCc1cc(Cl)c(F)c(-c2cc3cn(-c4ccc([C@@H]5CCC[C@@H](CCC(=O)O)N5)cc4)c(=O)nc3[nH]2)c1 [Compound 514] | > 16 | > 16
C[C@H](N)CCCc1cc(Cl)c(F)c(-c2cc3cn(-c4ccc([C@@H]5CCC[C@@H](CCNC=N)N5)cc4)c(=O)nc3[nH]2)c1 [Compound 515] | < 16 | < 16
